Patent US5300304A, “Pulsatile once-a-day delivery systems for minocycline” (priority 1992, dated 1994)
Read-outs that look alike come from different tables or passages of the source.

Columns and labels:
[1] = taken without food; cited from earlier work
[2] = tested on: gram-negative and gram-positive bacteria; settings: PDR 43rd Ed.; cited from earlier work

CN(C)c1ccc(O)c2c1C[C@H]1C[C@H]3[C@H](N(C)C)C(=O)C(C(N)=O)=C(O)[C@@]3(O)C(=O)C1=C2O [minocycline, 7-dimethylamino-6-deoxy-6-demethyltetracycline]
half life [1]: approximately 10 hours | bioavailability of minocycline in the gastrointestinal tract (duodenum, based upon 100 percent absorption in the stomach): 106% | absorption in the lower gastrointestinal tract (human patients, intubation): reduced absorption | bioavailability of minocycline in the gastrointestinal tract (ileum, based upon 100 percent absorption in the stomach): 58% | bioavailability of minocycline in the gastrointestinal tract (jejunum, based upon 100 percent absorption in the stomach): 80% | bioavailability of minocycline in the gastrointestinal tract (stomach, reference (100 percent absorption in the stomach)): 100% | organisms susceptible to minocycline therapy [2]: wide range of gram-negative and gram-positive bacteria
